Earlier results as cited in patent US20260216071A1, “NANOPARTICULATE FORMULATION” (NEWIMMUNE II, LLC, priority 2022, published 2026).

absorption following oral administration: well absorbed
SMILES: CCCCc1nc(Cl)c(CO)n1Cc1ccc(-c2ccccc2-c2nn[nH]n2)cc1 [Losartan, (2-butyl-4-chloro-1-{[2′-(1H-tetrazol-5-yl)biphenyl-4-yl]methyl}-1H-imidazol-5-yl) methanol]
